What is called IC50 is the concentration needed to halve the response being measured. Higher therefore signals weaker potency in that assay. A word on the melting point: it is the temperature, or range, at which the solid turns liquid.

IC50 and melting point data for two molecules are collected here from patent US6432969B1, “N-(substituted glycyl)-2 cyanopyrrolidines, pharmaceutical compositions containing them and their use in inhibiting dipeptidyl peptidase-IV” (Novartis AG, priority 2000, dated 2002).

Each structure is given as a SMILES string.

Data set [1] addresses T1, DPP-IV activity from human colonic carcinoma cell (Caco-2) extracts (Homo sapiens, UniProt P27487).
T1 construct: Cell extract is prepared from cells solubilized in 10 mM Tris HCl; host or cells: Caco-2, differentiated to induce DPP-IV expression
Briefly: Caco-2 DPP-IV Assay. The settings on record: Caco-2 cell extract, substrate H-Ala-Pro-pNA, 8-point dose-response. Format: biochemical. The protocol: The human colonic carcinoma cell line Caco-2 was obtained from the American Type Culture Collection (ATCC HTB 37). Differentiation of the cells to induce DPP-IV expression was accomplished as described by Reisher, et al. in an article entitled “Increased expression of intestinal cell line Caco-2” in Proc. Natl. Acad. Sci., Vol. 90, pgs. […] Cell extract is prepared from cells solubilized in 10 mM Tris HCl, 0.15 M NaCl, 0.04 t.i.u.aprotinin, 0.5% nonidet-P40, pH 8.0, which is centrifuged at 35,000 g for 30 min. at 4° C. to remove cell debris. The assay is conducted by adding 20 μg solubilized Caco-2 protein, diluted to a final volume of 125 μl in assay buffer (25 mM Tris HCl pH 7.4, 140 mM NaCl, 10 mM KCl, 1% bovine serum albumin) to microtiter plate wells. After a 60 min. incubation at room temperature, the reaction is initiated by adding 25 μl of 1 mM substrate (H-Alanine-Proline-pNA; pNA is p-nitroaniline). […] A standard curve of free p-nitroaniline is generated using 0-500 μM solutions of free pNA in assay buffer. The curve generated is linear and is used for interpolation of substrate consumption (catalytic activity in nmoles substrate cleaved/min).
The potency of the test compounds as DPP-IV inhibitors, expressed as IC50, is calculated from 8-point, dose-response curves using a 4-parameter logistic function.

Data set [2] deals with T2, DPP-IV activity in human plasma (Homo sapiens, UniProt P27487).
T2 construct: from tissue; host or cells: human plasma
T2 sequence (P27487 39-766 limits assumed): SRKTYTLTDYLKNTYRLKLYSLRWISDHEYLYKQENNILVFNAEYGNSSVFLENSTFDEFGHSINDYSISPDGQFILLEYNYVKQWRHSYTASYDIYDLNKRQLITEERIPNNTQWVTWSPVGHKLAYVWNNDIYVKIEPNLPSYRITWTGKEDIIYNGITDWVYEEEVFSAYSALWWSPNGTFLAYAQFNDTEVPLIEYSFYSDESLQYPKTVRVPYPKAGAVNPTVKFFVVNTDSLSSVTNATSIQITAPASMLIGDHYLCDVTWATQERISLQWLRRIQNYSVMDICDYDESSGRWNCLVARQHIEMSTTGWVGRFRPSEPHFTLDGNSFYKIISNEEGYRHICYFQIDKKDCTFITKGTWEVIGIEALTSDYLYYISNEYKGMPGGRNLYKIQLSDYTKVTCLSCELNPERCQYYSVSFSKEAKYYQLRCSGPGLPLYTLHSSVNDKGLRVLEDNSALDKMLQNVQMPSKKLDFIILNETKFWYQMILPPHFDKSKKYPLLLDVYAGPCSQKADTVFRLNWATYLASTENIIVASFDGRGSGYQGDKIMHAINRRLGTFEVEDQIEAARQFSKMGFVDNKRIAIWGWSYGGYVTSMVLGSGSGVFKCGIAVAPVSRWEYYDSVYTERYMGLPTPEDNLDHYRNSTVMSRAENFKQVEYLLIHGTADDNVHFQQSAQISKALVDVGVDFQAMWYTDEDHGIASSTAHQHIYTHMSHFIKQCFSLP
The experiment in a line: Human plasma DPP-IV assay. Type of data set: biochemical. The settings on record: substrate H-Gly-Pro-AMC. The protocol: (§1) Briefly, 5 μl of plasma are added to 96-well flat-bottom micortiter plates (Falcon), followed by the addition of 5 μl of 80 mM MgCl2 in incubation buffer (25 mMHEPES, 140 mM NaCl, 1% RIA-grade BSA, pH 7.8). After a 60 min. incubation at room temperature, the reaction is initiated by the addition of 10 μl of incubation buffer containing 0.1 mM substrate (H-Glycine-Proline-AMC; AMC is 7-amino 4-methylcoumarin). The plates are covered with aluminum foil (or kept in the dark) and incubated at room temperature for 20 min. […] A fluorescence-concentration curve of free AMC is generated using 0-50 μM solutions of AMC in assay buffer. The curve generated is linear and is used for interpolation of substrate consumption (catalytic activity in nmoles substrate cleaved/min). As with the previous assay, the potency of the test compounds as DPP-IV inhibitors, expressed as IC50, is calculated from 8-point, dose-response curves using a 4 parameter logistic function.

For data set [3], the target named is T3, DPP-IV activity in rat plasma (Rattus norvegicus, UniProt P14740).
T3 construct: from tissue; host or cells: rat plasma
T3 sequence (P14740 38-767 limits assumed): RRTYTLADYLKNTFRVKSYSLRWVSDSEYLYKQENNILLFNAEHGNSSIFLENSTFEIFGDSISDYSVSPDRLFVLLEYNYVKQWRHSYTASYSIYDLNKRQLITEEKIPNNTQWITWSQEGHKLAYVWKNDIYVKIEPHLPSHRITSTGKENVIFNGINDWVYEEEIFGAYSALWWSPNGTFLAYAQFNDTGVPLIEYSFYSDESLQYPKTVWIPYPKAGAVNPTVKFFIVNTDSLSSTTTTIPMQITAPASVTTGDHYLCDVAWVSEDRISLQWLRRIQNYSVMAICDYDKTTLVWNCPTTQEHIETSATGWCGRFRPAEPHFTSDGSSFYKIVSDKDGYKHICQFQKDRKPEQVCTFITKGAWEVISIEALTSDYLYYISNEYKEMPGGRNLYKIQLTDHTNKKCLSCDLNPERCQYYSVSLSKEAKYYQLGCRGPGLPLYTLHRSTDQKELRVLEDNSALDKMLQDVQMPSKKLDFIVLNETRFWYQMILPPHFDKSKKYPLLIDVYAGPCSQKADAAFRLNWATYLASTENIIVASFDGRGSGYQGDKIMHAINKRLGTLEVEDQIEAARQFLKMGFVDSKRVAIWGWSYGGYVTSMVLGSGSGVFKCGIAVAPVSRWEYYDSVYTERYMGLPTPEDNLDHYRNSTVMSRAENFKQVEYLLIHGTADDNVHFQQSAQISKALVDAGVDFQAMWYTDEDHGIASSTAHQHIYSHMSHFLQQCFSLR
The experiment in a line: Rat plasma DPP-IV assay. Format: biochemical. The note with it: substrate H-Gly-Pro-AMC. The protocol:
as §1

T1 sequence (P27487 whole entry): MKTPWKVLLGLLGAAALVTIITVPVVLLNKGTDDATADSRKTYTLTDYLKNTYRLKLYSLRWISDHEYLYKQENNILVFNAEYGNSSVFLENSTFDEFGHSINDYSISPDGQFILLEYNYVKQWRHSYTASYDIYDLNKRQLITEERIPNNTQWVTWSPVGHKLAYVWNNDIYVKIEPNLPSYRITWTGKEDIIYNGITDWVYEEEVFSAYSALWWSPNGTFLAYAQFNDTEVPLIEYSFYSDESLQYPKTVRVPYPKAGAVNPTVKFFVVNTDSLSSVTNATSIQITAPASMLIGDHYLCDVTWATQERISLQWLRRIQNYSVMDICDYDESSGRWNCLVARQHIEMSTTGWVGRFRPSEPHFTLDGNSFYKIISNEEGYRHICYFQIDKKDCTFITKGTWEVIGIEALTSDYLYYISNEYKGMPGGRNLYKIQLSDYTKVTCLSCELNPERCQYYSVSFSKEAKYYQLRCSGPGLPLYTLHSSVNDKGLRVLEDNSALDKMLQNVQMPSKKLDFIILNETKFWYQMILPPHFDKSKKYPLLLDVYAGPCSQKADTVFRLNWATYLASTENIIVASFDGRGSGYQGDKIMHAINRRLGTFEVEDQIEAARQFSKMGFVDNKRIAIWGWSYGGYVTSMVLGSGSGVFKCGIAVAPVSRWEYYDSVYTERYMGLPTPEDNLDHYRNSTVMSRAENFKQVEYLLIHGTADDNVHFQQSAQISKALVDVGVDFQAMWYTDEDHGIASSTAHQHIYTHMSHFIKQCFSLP

`CC(C)(CNc1cc(C(F)(F)F)ccn1)NCC(=O)N1CCC[C@H]1C#N` [Ex. 2E, 1-[[[2-[(4-trifluoromethyl-2-pyridinyl)amino]-1,1-dimethylethyl]amino]acetyl]-2-cyano-(S)-pyrrolidine] showed a melting point of 38 to 40 °C. The same molecule returned an IC50 in data set [1] of 27 nM. This molecule returned an IC50 in data set [2] of 27 nM. In data set [3], half-maximal inhibition (IC50) was put at 19 nM.
`N#C[C@@H]1CCCN1C(=O)CNC1CCN(c2nc(-c3ccccc3)cs2)CC1` [Ex. 2KK, 1-[[[1-(4-phenyl-2-thiazolyl)-4-piperidinyl]amino]acetyl]-2-cyano-(S)-pyrrolidine] yielded a melting point of 141 to 143 °C. This molecule returned an IC50 in data set [1] of 28 nM. Besides, the IC50 in data set [2] is 38 nM. Moreover, in data set [3], the IC50 was determined as 12 nM.
